Experimental data as given in PubChem BioAssay AID624405 (Broad Institute, 2012).
Records with an inconclusive call do not appear.

What follows are compounds tested on C2C12 myotubes + simvastatin, ATP luminescence, 48 h (assay: suppressors of statin myotoxicity in myotubes, dose response, cell-based, C2C12 myotubes, ATP luminescence, cherry pick (AID 624405);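 also: myotubes are challenged with simvastatin at 10 µM to lower ATP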).

Going from `CCOC(=O)n1c(=O)n(Cc2c(Cl)cccc2Cl)c2ccccc21` to `CCCCCn1c(=O)c(C(=O)c2ccccc2)nc2ccccc21`, the AC40 rises from 7.14 µM to 15.6 µM (2.2-fold).

Going from `Cc1cc(C(=O)COC(=O)C2=NNC(=O)CC2)c(C)n1-c1ccccc1` to `Cc1cccc(-n2c(O)c(C=NC3CCS(=O)(=O)C3)c3ccccc3c2=O)c1` (stereo unspecified), the AC40 rises from 11.7 µM to 17.6 µM (1.5-fold).

Compared with `C[C@H](CO)N1C[C@H](C)[C@@H](CN(C)Cc2ccc(Cl)c(Cl)c2)Oc2ccc(NS(=O)(=O)c3cn(C)cn3)cc2CC1=O`, `C[C@@H]1CN([C@H](C)CO)C(=O)Cc2cc(NS(=O)(=O)c3cn(C)cn3)ccc2O[C@@H]1CN(C)Cc1ccc(Cl)c(Cl)c1` is 2-fold lower in AC40: 5.29 µM for the first, 2.69 µM for the second.

`CCSc1nnc(NC(=O)c2c(-c3ccccc3Cl)noc2C)s1` and `Cc1nn(Cc2ccccc2Cl)c2sc(C(=O)NCc3ccc4c(c3)OCO4)cc12` are within 1.5-fold of each other in AC40: 13.9 µM for the first, 12.5 µM for the second.

First: C[C@@H]1CN([C@H](C)CO)C(=O)Cc2cc(NC(=O)C3CCCCC3)ccc2O[C@H]1CN(C)Cc1ccc(Cl)c(Cl)c1
Second: C[C@H](CO)N1C[C@H](C)[C@@H](CN(C)Cc2ccc(Cl)c(Cl)c2)Oc2ccc(NC(=O)C3CC3)cc2CC1=O
The AC40 of the first is 4.3-fold higher: 5.24 µM for the first, 1.23 µM for the second.

`C[C@H]1CN([C@@H](C)CO)C(=O)Cc2cc(NC(=O)CCCCCC(=O)Nc3ccccc3N)ccc2O[C@H]1CN(C)Cc1ccc(-c2ccccc2)cc1` and `C[C@@H]1CN([C@H](C)CO)C(=O)Cc2cc(NC(=O)CCCCCC(=O)Nc3ccccc3N)ccc2O[C@H]1CN(C)Cc1ccc(-c2ccccc2)cc1` are within 1.5-fold of each other in AC40: 7.68 µM for the first, 6.3 µM for the second.

Compared with `CCCCCCn1c(C(C)O)nc2ccccc21` (stereo unspecified), `CCC(=O)/C=C1/Sc2ccccc2N1CC` is 3.7-fold higher in AC40: 1.94 µM for the first, 7.21 µM for the second.

Compared with `C[C@H]1CN([C@@H](C)CO)C(=O)Cc2cc(NS(=O)(=O)c3ccc(F)cc3)ccc2O[C@@H]1CN(C)Cc1ccc(Cl)c(Cl)c1`, `C[C@H](CO)N1C[C@H](C)[C@@H](CN(C)Cc2ccc(Cl)c(Cl)c2)Oc2ccc(NS(C)(=O)=O)cc2CC1=O` is 1.6-fold lower in AC40: 15.8 µM for the first, 9.83 µM for the second.

Compared with `COc1ccc(CN2[C@H](CO)[C@H]3c4ccccc4NC[C@H]32)cc1`, `O=C(C[C@H]1CC[C@@H]2[C@H](COC[C@@H](O)CN2Cc2ccc(Oc3ccccc3)cc2)O1)N1CCCCC1` is 5.6-fold lower in AC40: 17.8 µM for the first, 3.19 µM for the second.

`C[C@H]1CN([C@@H](C)CO)C(=O)c2cccc(NC(=O)Nc3ccc(C(F)(F)F)cc3)c2O[C@H]1CN(C)CC1CCCCC1` and `C[C@@H]1CN([C@@H](C)CO)C(=O)c2cccc(NC(=O)Nc3ccccc3)c2O[C@@H]1CN(C)S(=O)(=O)c1ccc(F)cc1` are within 1.5-fold of each other in AC40: 19.1 µM for the first, 15.1 µM for the second.

Compared with `CCOC(=O)N1CCN(C(=O)CN(Cc2ccccc2)S(=O)(=O)c2ccc(OC)c(Cl)c2)CC1`, `CCOC(=O)N1CCN(C(=O)C(c2ccccc2)c2ccccc2)CC1` is 2.7-fold lower in AC40: 15.7 µM for the first, 5.75 µM for the second.

Going from `O=C(Nc1ccc2nc3n(c(=O)c2c1)CCCCC3)c1c(F)ccc([N+](=O)[O-])c1F` to `CC1(Cc2cccc(F)c2)C(=O)Nc2ccc(S(=O)(=O)NC3CCCCC3)cc21` (stereo unspecified), the AC40 falls from 4.3 µM to 1.66 µM (2.6-fold).

Going from `O=C(NCc1ccco1)c1cc2sccc2n1Cc1ccc(F)cc1` to `O=C(NCc1ccco1)c1cc2sccc2n1Cc1ccccc1`, the AC40 falls from 16.4 µM to 0.839 µM (20-fold).

Compared with `Cc1ccc(-c2nnc(CSc3nnc(COc4cccc5ccccc45)n3-c3ccccc3)o2)cc1`, `OC(c1cccc(OCc2ccccc2)c1)c1nnc(-c2ccccc2)o1` (stereo unspecified) is 3.5-fold lower in AC40: 18.2 µM for the first, 5.24 µM for the second.

Compared with `CCn1c(CNc2ccc(F)cc2)nnc1SCC(=O)Nc1ccc(OC)cc1`, `CC(=O)Nc1nc2n(n1)C(c1ccc(F)cc1)C=C(c1ccccc1)N2` (stereo unspecified) is 3.3-fold lower in AC40: 5.81 µM for the first, 1.77 µM for the second.

`COc1ccccc1C(=O)Nc1ccc2c(c1)OCO2` and `CCOc1ccccc1NC(=O)c1ccccc1N(C)S(C)(=O)=O` are within 1.5-fold of each other in AC40: 4.38 µM for the first, 5.38 µM for the second.

First: N#C[C@@H]1[C@@H](c2ccc(-c3cccc(F)c3)cc2)[C@H](CO)N1C(=O)NC1CCCC1
Second: CC1(Cc2ccccc2OC(F)(F)F)C(=O)Nc2ccc(S(=O)(=O)NC3CCCCC3)cc21 (stereo unspecified)
The AC40 of the first is 17-fold lower: 0.38 µM for the first, 6.62 µM for the second.

Going from `CCOc1ccc2nc(N3CCCC(C(=O)N4CCN(CC)CC4)C3)sc2c1` (stereo unspecified) to `CCOC(=O)N1CCN(C(=O)COc2ccc(S(=O)(=O)NC3CCCCC3)cc2C)CC1`, the AC40 rises from 6.42 µM to 14.1 µM (2.2-fold).

Going from `O=C(NCc1ccco1)C1CCN(C(=O)c2cc3sccc3n2Cc2ccc(F)cc2)CC1` to `CC1CCN(S(=O)(=O)c2ccc(NC(=O)C3CCN(C(=O)c4ccco4)CC3)cc2)CC1`, the AC40 falls from 12.1 µM to 6.94 µM (1.7-fold).

`Cc1ccc(C2CC2c2n[nH]c(=S)n2-c2ccc(C)cc2)cc1` (stereo unspecified) and `Cc1ccc(C2(c3ccc(C)cc3)NC(=O)N(Cc3c(C)noc3C)C2=O)cc1` are within 1.5-fold of each other in AC40: 6.33 µM for the first, 5.45 µM for the second.

Compared with `C[C@@H]1CN([C@@H](C)CO)C(=O)Cc2cc(NC(=O)CCCCCC(=O)Nc3ccccc3N)ccc2O[C@H]1CN(C)Cc1ccccc1`, `C[C@H]1CN([C@@H](C)CO)C(=O)Cc2cc(NC(=O)CCCCCC(=O)Nc3ccccc3N)ccc2O[C@H]1CN(C)Cc1ccccc1` is 4-fold lower in AC40: 12.2 µM for the first, 3.02 µM for the second.

Compared with `COc1cc(CNc2ncnc3c2ncn3[C@H]2CN(Cc3cccc4ccccc34)C[C@@H](CO)O2)cc(OC)c1OC`, `COc1ccccc1NS(=O)(=O)c1cccc(NC(=O)c2nc3nc(C)cc(C)n3n2)c1` is 6.3-fold higher in AC40: 1.36 µM for the first, 8.63 µM for the second.

First: CCc1ccc(CNCc2cccnc2)cc1
Second: Cc1ccc(O)c(CNc2ccccn2)c1
The AC40 of the first is 40-fold higher: 17.7 µM for the first, 0.443 µM for the second.

First: O=C(NCC(c1cccnc1)N1CCN(c2ccc(F)cc2)CC1)c1ccc2c(c1)OCO2 (stereo unspecified)
Second: C[C@H](CO)N1C[C@H](C)[C@@H](CN(C)Cc2ccc(C(=O)Nc3ccccc3N)cc2)Oc2ccc(NC(=O)Nc3ccc4c(c3)OCO4)cc2CC1=O
The AC40 of the first is 2.1-fold lower: 5.7 µM for the first, 11.7 µM for the second.

First: C[C@@H]1CN([C@H](C)CO)C(=O)Cc2cc(NC(=O)CCCCCC(=O)Nc3ccccc3N)ccc2O[C@@H]1CN(C)Cc1ccccc1
Second: C[C@H]1CN([C@@H](C)CO)C(=O)Cc2cc(NC(=O)CCCCCC(=O)Nc3ccccc3N)ccc2O[C@H]1CN(C)Cc1ccc(Oc2ccccc2)cc1
The AC40 of the first is 3.7-fold higher: 14.4 µM for the first, 3.86 µM for the second.

Going from `Fc1ccccc1OCCCCn1cncn1` to `COc1ccccc1-c1noc(-c2cccs2)n1`, the AC40 falls from 18.6 µM to 0.575 µM (32-fold).

Compared with `COc1ccc(S(=O)(=O)Nc2ccc3c(c2)C(=O)N([C@@H](C)CO)C[C@H](C)[C@H](CN(C)S(=O)(=O)c2ccc(F)cc2)OCCCC[C@@H](C)O3)cc1`, `COc1ccc(CN(C)C[C@H]2Oc3ccc(NS(=O)(=O)c4ccc(Cl)cc4)cc3CC(=O)N([C@@H](C)CO)C[C@@H]2C)cc1` is 37-fold lower in AC40: 17.7 µM for the first, 0.484 µM for the second.

First: C[C@@H]1CN([C@@H](C)CO)C(=O)c2cc(NC(=O)Nc3cccc4ccccc34)ccc2O[C@@H]1CN(C)Cc1ccc(C(=O)Nc2ccccc2N)cc1
Second: C[C@@H]1CN([C@H](C)CO)C(=O)c2cc(NC(=O)Nc3cccc4ccccc34)ccc2O[C@@H]1CN(C)Cc1ccc(C(=O)Nc2ccccc2N)cc1
The AC40 of the first is 2.3-fold lower: 2.85 µM for the first, 6.44 µM for the second.

Going from `C/C=C/Cn1c(SCc2ccccc2)nc2c1c(=O)[nH]c(=O)n2C` to `CCOc1[nH]n(-c2ccccc2)c(=O)c1C=Nc1ccc(Cl)cc1`, the AC40 rises from 0.556 µM to 11.9 µM (21-fold).

`COc1cc(OC)cc(-c2nnc(SCC(=O)N3CCCc4ccccc43)o2)c1` and `COc1ccc(-c2csc(C(C)(O)c3ccccc3)n2)cc1OC` (stereo unspecified) are within 1.5-fold of each other in AC40: 16.8 µM for the first, 13.4 µM for the second.

`C[C@@H]1CN([C@H](C)CO)C(=O)Cc2cc(NS(C)(=O)=O)ccc2O[C@@H]1CN(C)Cc1ccc(-c2ccccc2)cc1` and `Cc1ccc(S(=O)(=O)Nc2ccc3c(c2)CC(=O)N([C@@H](C)CO)C[C@H](C)[C@@H](CN(C)Cc2ccc(-c4ccccc4)cc2)O3)cc1` are within 1.5-fold of each other in AC40: 18.4 µM for the first, 18.9 µM for the second.

Going from `C[C@H]1CN([C@@H](C)CO)C(=O)Cc2cc(NC(=O)CCCCCC(=O)Nc3ccccc3N)ccc2O[C@H]1CN(C)CC1CCCCC1` to `C[C@H]1CN([C@@H](C)CO)C(=O)Cc2cc(NC(=O)CCCCCC(=O)Nc3ccccc3N)ccc2O[C@H]1CN(C)Cc1ccc(C(F)(F)F)cc1`, the AC40 rises from 2.67 µM to 4.15 µM (1.6-fold).

First: Cc1noc(C)c1S(=O)(=O)Nc1ccc2c(c1)CC(=O)N([C@H](C)CO)C[C@H](C)[C@@H](CN(C)Cc1ccc(C(F)(F)F)cc1)O2
Second: Cc1ccc(S(=O)(=O)Nc2ccc3c(c2)CC(=O)N([C@H](C)CO)C[C@H](C)[C@@H](CN(C)Cc2ccc4c(c2)OCO4)O3)cc1
The AC40 of the first is 3.1-fold lower: 4.59 µM for the first, 14.1 µM for the second.

Going from `COc1ccc(S(=O)(=O)Nc2ccc3c(c2)CC(=O)N([C@H](C)CO)C[C@@H](C)[C@H](CN(C)CC2CCCCC2)O3)cc1` to `C[C@@H]1CN([C@H](C)CO)C(=O)Cc2cc(NS(=O)(=O)c3ccc(Cl)cc3)ccc2O[C@H]1CN(C)Cc1ccccc1`, the AC40 rises from 2.63 µM to 4.44 µM (1.7-fold).

First: CCC(C(=O)N(C(C)C)C(C)C)c1ccccc1 (stereo unspecified)
Second: COc1ccc(S(=O)(=O)N(C)C[C@H]2Oc3c(NC(=O)Nc4ccccc4)cccc3C(=O)N([C@H](C)CO)C[C@H]2C)cc1
The AC40 of the first is 3.9-fold higher: 18.8 µM for the first, 4.87 µM for the second.

First: Cc1ccc(C)c(NC(=O)C2CC3c4ccccc4C2c2ccccc23)c1 (stereo unspecified)
Second: Cc1ccc(NS(=O)(=O)c2ccc(-n3cccn3)cc2)cc1C
The AC40 of the first is 5.2-fold lower: 3.1 µM for the first, 16.1 µM for the second.

First: C[C@@H]1C[C@@H]([C@H](O)CC2CC(=O)NC(=O)C2)C(=O)[C@@H](C)C1
Second: COc1cc(NC(=O)CN(C)S(=O)(=O)c2ccc3c(c2)CC(C)N3C(C)=O)cc(OC)c1OC (stereo unspecified)
The AC40 of the first is lower: < 0.16 µM for the first, 15.9 µM for the second.

Going from `C[C@@H]1CN([C@H](C)CO)C(=O)c2cccc(NC(=O)Nc3ccccc3)c2O[C@H]1CN(C)Cc1ccc(C(=O)Nc2ccccc2N)cc1` to `C[C@H]1CN([C@@H](C)CO)C(=O)c2cc(NC(=O)Nc3cccc4ccccc34)ccc2O[C@H]1CN(C)Cc1ccc(C(=O)Nc2ccccc2N)cc1`, the AC40 falls from 11 µM to 5.45 µM (2-fold).

Going from `CC(C)(C)c1ccc(OCC(=O)N/N=C/c2cc(Br)ccc2OC(=O)c2ccco2)cc1` to `COc1ccc(C#Cc2cnc3c(c2)C(=O)N([C@H](C)CO)C[C@H](C)[C@@H](CN(C)C(=O)Nc2cccc(OC)c2)O3)cc1`, the AC40 falls from 2.32 µM to 1.38 µM (1.7-fold).

`O=c1[nH]cnc2scc(-c3ccsc3)c12` and `Oc1ccc(Cl)cc1C1=NNC(c2cccs2)C1` (stereo unspecified) are within 1.5-fold of each other in AC40: 13.2 µM for the first, 11.4 µM for the second.

Compared with `Fc1ccc(C2=Nn3c(nnc3-c3n[nH]c4c3CCC4)SC2)cc1`, `C[C@H]1CN([C@@H](C)CO)S(=O)(=O)c2ccc(-c3cccc(F)c3)cc2O[C@@H]1CN(C)S(=O)(=O)c1ccc(F)cc1` is 13-fold higher in AC40: 1.23 µM for the first, 15.5 µM for the second.

Compared with `C[C@H](CO)N1C[C@H](C)[C@H](CN(C)Cc2ccc(C(=O)Nc3ccccc3N)cc2)Oc2ccc(NC(=O)Nc3cccc4ccccc34)cc2CC1=O`, `C[C@H]1CN([C@@H](C)CO)C(=O)c2cc(NC(=O)Nc3cccc4ccccc34)ccc2O[C@@H]1CN(C)Cc1ccc(C(=O)Nc2ccccc2N)cc1` is 1.7-fold higher in AC40: 10.5 µM for the first, 17.7 µM for the second.

Compared with `C[C@H](CO)N1C[C@H](C)[C@H](CN(C)Cc2ccc(C(=O)Nc3ccccc3N)cc2)Oc2ccc(NC(=O)Nc3ccc(F)cc3)cc2CC1=O`, `O=C(CN1CCC(c2nc3ccccc3s2)CC1)NCc1ccccc1` is 9.8-fold higher in AC40: 1.97 µM for the first, 19.3 µM for the second.
